Like-named read-outs stand apart in the source and are kept apart here. Numbered stars: 1 amine (or outer) side, 2 acyl side, 3 side chain; on linkers, the order of the positions; unused ones are H or OH. Bridge positions count the residues as written; N and C are the ends. Side chains are listed from the residue outwards. Peptide text beside a SMILES is read from it. * marks the point of attachment. C20 diacid = O=C(O)CCCCCCCCCCCCCCCCCCC(=O)*; γGlu = O=C(O)[C@H](CCC(=O)[*:2])N[*:1]
Legend:
[1] = ASSAY (III) ThT fibrillation assay for physical stability; format: physicochemical
Procedure, shortened: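 Physical stability scored by ThT fluorescence (444 nm excitation, 485 nm emission) tracked every 20 min during 37 °C incubation with 960 rpm shaking, ThT at 1 μM final. Values are replicate means with SD at chosen times; HPLC against pramlintide standard gives initial and post-assay soluble concentrations.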

[2] = target: T1, human amylin 3(a) receptor (human calcitonin receptor + RAMP-3) in BHK570 cells (Homo sapiens, UniProt O60896+P30988); assay: ASSAY (II)a functional assay, human amylin receptor (CRE luciferase); format: cell-based
T1 construct: expressed in transfected cells
Procedure, shortened: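 Receptor activation is measured as cAMP-driven CRE-luciferase expression in BHK cells expressing the calcitonin receptor, with RAMP-3 co-expressed to form the amylin 3(a) receptor. Cells are exposed to compound for 3 hours at 37° C, and luciferase is then quantified by luminescence.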

[3] = hCTR funct. EC50 / hAmylin-R funct. EC50
[4] = hCTR funct. EC50 divided by hAmylin-R funct. EC50
[5] = hCTR funct. EC50 over hAmylin-R funct. EC50
[6] = human functional selectivity: hCTR funct. EC50 / hAmylin-R funct. EC50

T1 sequence (O60896 24-148): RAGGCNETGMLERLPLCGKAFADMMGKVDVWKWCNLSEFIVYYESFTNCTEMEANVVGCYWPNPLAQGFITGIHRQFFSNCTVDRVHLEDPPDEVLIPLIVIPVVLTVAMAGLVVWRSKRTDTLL
T1 sequence (P30988 25-474): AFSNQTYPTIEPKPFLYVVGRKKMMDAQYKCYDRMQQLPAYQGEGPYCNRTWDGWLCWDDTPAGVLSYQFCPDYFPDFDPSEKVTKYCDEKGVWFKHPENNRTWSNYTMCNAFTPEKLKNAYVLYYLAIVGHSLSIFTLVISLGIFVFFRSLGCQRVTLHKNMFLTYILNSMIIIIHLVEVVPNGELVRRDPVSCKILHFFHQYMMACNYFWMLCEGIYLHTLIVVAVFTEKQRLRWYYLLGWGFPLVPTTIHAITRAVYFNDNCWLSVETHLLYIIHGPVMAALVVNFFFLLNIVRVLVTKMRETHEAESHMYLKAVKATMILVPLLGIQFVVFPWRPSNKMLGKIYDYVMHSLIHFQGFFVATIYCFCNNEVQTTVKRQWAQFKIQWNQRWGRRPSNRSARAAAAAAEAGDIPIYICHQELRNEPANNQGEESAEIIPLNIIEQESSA

Structure (SMILES)	ThT pH 4.0 lag time (h) [1] [h]	Ratio hCT/hAmylin funct. [2, 4]	Ratio hCT/hAmylin funct. [2, 5]	Ratio hCT/hAmylin funct. [2, 6]	Ratio hCT/hAmylin funct. [2, 3]	EC50 ([2]; human amylin receptor functional potency, assay (II), read-out: hAmylin-R funct. EC50) [nM]	EC50 [2] [nM]
CC[C@H](C)[C@H](NC(=O)[C@H](C)NC(=O)CNC(=O)[C@H](Cc1ccccc1)NC(=O)[C@H](CC(N)=O)NC(=O)[C@@H]1CCCN1C(=O)[C@H](CO)NC(=O)[C@H](CO)NC(=O)[C@H](Cc1c[nH]cn1)NC(=O)[C@H](CCCNC(=N)N)NC(=O)[C@H](CC(C)C)NC(=O)[C@H](Cc1ccccc1)NC(=O)[C@H](CC(=O)O)NC(=O)[C@H](C)NC(=O)[C@H](CC(C)C)NC(=O)[C@H](CCCNC(=N)N)NC(=O)[C@H](CCC(N)=O)NC(=O)[C@@H](NC(=O)[C@H](C)NC(=O)[C@@H]1CSSC[C@H](NC(=O)[C@H](CCCCN)NC(=O)CC[C@H](NC(=O)CCCCCCCCCCCCCCCCCCC(=O)O)C(=O)O)C(=O)N[C@@H](CC(N)=O)C(=O)N[C@@H]([C@@H](C)O)C(=O)N[C@@H](C)C(=O)N[C@@H]([C@@H](C)O)C(=O)N1)[C@@H](C)O)C(=O)N1CCC[C@H]1C(=O)N[C@@H](CO)C(=O)N[C@@H](CO)C(=O)N[C@H](C(=O)N[C@@H](CC(N)=O)C(=O)N[C@H](C(=O)NCC(=O)N[C@@H](CO)C(=O)N[C@@H](CC(N)=O)C(=O)N[C@H](C(=O)N1CCC[C@H]1C(N)=O)[C@@H](C)O)C(C)C)[C@@H](C)O [Example 10] ({C20 diacid-γGlu}-KCNTATCATQRLADFLRHSSPNFGAIPSSTNVGSNTP-NH2; disulfide 2-7 (inferred))	45	1.0	1.0	1.0	1.0	0.072	
CC[C@H](C)[C@H](NC(=O)[C@H](C)NC(=O)CNC(=O)[C@H](Cc1ccccc1)NC(=O)[C@H](CC(N)=O)NC(=O)[C@@H]1CCCN1C(=O)[C@H](CO)NC(=O)[C@H](CO)NC(=O)[C@H](Cc1c[nH]cn1)NC(=O)[C@H](CCCNC(=N)N)NC(=O)[C@H](CC(C)C)NC(=O)[C@H](Cc1ccccc1)NC(=O)[C@H](C)NC(=O)[C@H](C)NC(=O)[C@H](CC(C)C)NC(=O)[C@H](CCCNC(=N)N)NC(=O)[C@H](CCC(N)=O)NC(=O)[C@@H](NC(=O)[C@H](C)NC(=O)[C@@H]1CSSC[C@H](NC(=O)[C@H](CCCNC(=N)N)NC(=O)CNC(=O)CC[C@H](NC(=O)CCCCCCCCCCCCCCCCCCC(=O)O)C(=O)O)C(=O)N[C@@H](CC(N)=O)C(=O)N[C@@H]([C@@H](C)O)C(=O)N[C@@H](C)C(=O)N[C@@H]([C@@H](C)O)C(=O)N1)[C@@H](C)O)C(=O)N1CCC[C@H]1C(=O)N[C@@H](CO)C(=O)N[C@@H](CO)C(=O)N[C@H](C(=O)N[C@@H](CC(N)=O)C(=O)N[C@H](C(=O)NCC(=O)N1CCC[C@H]1C(=O)N[C@@H](CC(N)=O)C(=O)N[C@H](C(=O)N[C@@H](Cc1ccc(O)cc1)C(N)=O)[C@@H](C)O)C(C)C)[C@@H](C)O [Example 103] ({C20 diacid-γGlu}-GRCNTATCATQRLAAFLRHSSPNFGAIPSSTNVGPNTY-NH2; disulfide 3-8)	45	2.1	2.1	2.1	2.1		0.07
CC[C@H](C)[C@H](NC(=O)[C@H](C)NC(=O)CNC(=O)[C@H](Cc1ccccc1)NC(=O)[C@H](CC(N)=O)NC(=O)[C@@H]1CCCN1C(=O)[C@H](CO)NC(=O)[C@H](CO)NC(=O)[C@H](Cc1c[nH]cn1)NC(=O)[C@H](CCCNC(=N)N)NC(=O)[C@H](CC(C)C)NC(=O)[C@H](Cc1ccccc1)NC(=O)[C@H](CCC(=O)O)NC(=O)[C@H](C)NC(=O)[C@H](CC(C)C)NC(=O)[C@H](CCCNC(=N)N)NC(=O)[C@H](CCC(N)=O)NC(=O)[C@@H](NC(=O)[C@H](C)NC(=O)[C@@H]1CSSC[C@H](NC(=O)[C@@H](N)CCCCNC(=O)CC[C@H](NC(=O)CCCCCCCCCCCCCCCCCCC(=O)O)C(=O)O)C(=O)N[C@@H](CC(N)=O)C(=O)N[C@@H]([C@@H](C)O)C(=O)N[C@@H](C)C(=O)N[C@@H]([C@@H](C)O)C(=O)N1)[C@@H](C)O)C(=O)N1CCC[C@H]1C(=O)N[C@@H](CO)C(=O)N[C@@H](CO)C(=O)N[C@H](C(=O)N[C@@H](CC(N)=O)C(=O)N[C@H](C(=O)NCC(=O)N1CCC[C@H]1C(=O)N[C@@H](CC(N)=O)C(=O)N[C@H](C(=O)N1CCC[C@H]1C(N)=O)[C@@H](C)O)C(C)C)[C@@H](C)O [Example 114] (H-K([γGlu-C20 diacid])CNTATCATQRLAEFLRHSSPNFGAIPSSTNVGPNTP-NH2; disulfide 2-7 (inferred); N-terminus assumed)	45	0.9	0.9	0.9	0.9		

Now from value to molecule, other results behind:

ThT pH 4.0 lag time (h) [1] [h]	Ratio hCT/hAmylin funct. [2, 4]	Ratio hCT/hAmylin funct. [2, 5]	Ratio hCT/hAmylin funct. [2, 6]	Structure (SMILES)	Ratio hCT/hAmylin funct. [2, 3]	EC50 ([2]; human amylin receptor functional potency, assay (II), read-out: hAmylin-R funct. EC50) [nM]	EC50 [2] [nM]
41	13.1	13.1	13.1	CC[C@H](C)[C@H](NC(=O)[C@H](C)NC(=O)CNC(=O)[C@H](Cc1ccccc1)NC(=O)[C@H](CC(N)=O)NC(=O)[C@@H]1CCCN1C(=O)[C@H](CO)NC(=O)[C@H](CO)NC(=O)[C@H](Cc1c[nH]cn1)NC(=O)[C@H](CCCNC(=N)N)NC(=O)[C@H](CC(C)C)NC(=O)[C@H](Cc1ccccc1)NC(=O)[C@H](CCC(=O)O)NC(=O)[C@H](C)NC(=O)[C@H](CC(C)C)NC(=O)[C@H](CCCNC(=N)N)NC(=O)[C@H](CCC(N)=O)NC(=O)[C@@H](NC(=O)[C@H](C)NC(=O)[C@@H]1CSSC[C@H](NC(=O)[C@@H](N)CCCCNC(=O)CC[C@H](NC(=O)CCCCCCCCCCCCCCCCCCC(=O)O)C(=O)O)C(=O)N[C@@H](CC(N)=O)C(=O)N[C@@H]([C@@H](C)O)C(=O)N[C@@H](C)C(=O)N[C@@H]([C@@H](C)O)C(=O)N1)[C@@H](C)O)C(=O)N1CCC[C@H]1C(=O)N[C@@H](CO)C(=O)N[C@@H](CO)C(=O)N[C@H](C(=O)N[C@@H](CC(N)=O)C(=O)N[C@H](C(=O)NCC(=O)N[C@@H](CO)C(=O)N[C@@H](Cc1c[nH]cn1)C(=O)N[C@H](C(=O)N[C@@H](Cc1ccc(O)cc1)C(N)=O)[C@@H](C)O)C(C)C)[C@@H](C)O [Example 128] (H-K([γGlu-C20 diacid])CNTATCATQRLAEFLRHSSPNFGAIPSSTNVGSHTY-NH2; disulfide 2-7 (inferred); N-terminus assumed)			
26	2.9	2.9	2.9	CC[C@H](C)[C@H](NC(=O)[C@H](C)NC(=O)CNC(=O)[C@H](Cc1ccccc1)NC(=O)[C@H](CC(N)=O)NC(=O)[C@@H]1CCCN1C(=O)[C@H](CO)NC(=O)[C@H](CO)NC(=O)[C@H](Cc1c[nH]cn1)NC(=O)[C@H](CCCNC(=N)N)NC(=O)[C@H](CC(C)C)NC(=O)[C@H](Cc1ccccc1)NC(=O)[C@H](Cc1c[nH]cn1)NC(=O)[C@H](C)NC(=O)[C@H](CC(C)C)NC(=O)[C@H](CCCNC(=N)N)NC(=O)[C@H](CCC(N)=O)NC(=O)[C@@H](NC(=O)[C@H](C)NC(=O)[C@@H]1CSSC[C@H](NC(=O)[C@H](CCCNC(=N)N)NC(=O)CNC(=O)CC[C@H](NC(=O)CCCCCCCCCCCCCCCCCCC(=O)O)C(=O)O)C(=O)N[C@@H](CC(N)=O)C(=O)N[C@@H]([C@@H](C)O)C(=O)N[C@@H](C)C(=O)N[C@@H]([C@@H](C)O)C(=O)N1)[C@@H](C)O)C(=O)N1CCC[C@H]1C(=O)N[C@@H](CO)C(=O)N[C@@H](CO)C(=O)N[C@H](C(=O)N[C@@H](CC(N)=O)C(=O)N[C@H](C(=O)NCC(=O)N1CCC[C@H]1C(=O)N[C@@H](CC(N)=O)C(=O)N[C@H](C(=O)N[C@@H](Cc1ccc(O)cc1)C(N)=O)[C@@H](C)O)C(C)C)[C@@H](C)O [Example 102] ({C20 diacid-γGlu}-GRCNTATCATQRLAHFLRHSSPNFGAIPSSTNVGPNTY-NH2; disulfide 3-8 (inferred))	2.9		
9	17.4	17.4	17.4	CC[C@H](C)[C@H](NC(=O)[C@H](C)NC(=O)CNC(=O)[C@H](Cc1ccccc1)NC(=O)[C@H](CC(N)=O)NC(=O)[C@@H]1CCCN1C(=O)[C@H](CO)NC(=O)[C@H](CO)NC(=O)[C@H](Cc1c[nH]cn1)NC(=O)[C@H](CCCNC(=N)N)NC(=O)[C@H](CC(C)C)NC(=O)[C@H](Cc1ccccc1)NC(=O)[C@H](CCC(=O)O)NC(=O)[C@H](C)NC(=O)[C@H](CC(C)C)NC(=O)[C@H](CCCNC(=N)N)NC(=O)[C@H](CCC(N)=O)NC(=O)[C@@H](NC(=O)[C@H](C)NC(=O)[C@@H]1CSSC[C@H](NC(=O)[C@H](CCCCN)NC(=O)COCCOCCNC(=O)COCCOCCNC(=O)CC[C@H](NC(=O)CCCCCCCCCCCCCCCCCCC(=O)O)C(=O)O)C(=O)N[C@@H](CC(N)=O)C(=O)N[C@@H]([C@@H](C)O)C(=O)N[C@@H](C)C(=O)N[C@@H]([C@@H](C)O)C(=O)N1)[C@@H](C)O)C(=O)N1CCC[C@H]1C(=O)N[C@@H](CO)C(=O)N[C@@H](CO)C(=O)N[C@H](C(=O)N[C@@H](CC(N)=O)C(=O)N[C@H](C(=O)NCC(=O)N[C@@H](CO)C(=O)N[C@@H](CC(N)=O)C(=O)N[C@H](C(=O)N[C@@H](Cc1ccc(O)cc1)C(N)=O)[C@@H](C)O)C(C)C)[C@@H](C)O [Example 19]			
